In patent US20100298141A1, “SUBSTITUTED PYRIDINE N-OXIDE HERBICIDES” (E. I. DU PONT DE NEMOURS AND COMPANY, priority 2007, published 2010):

Key:
barnyardgrass = test: Test E flooded paddy test; format: in vivo, Echinochloa crus-galli; settings: Flood, after 21 days, scale 0 to 100
From the text: (§1) Three plastic pots (ca. 16-cm diameter) per rate were partially filled with sterilized Tama silt loam soil comprising a 35:50:15 ratio of sand, silt and clay and 2.6% organic matter. Separate plantings for each of the three pots were as follows. Seeds from the U.S. of ducksalad (Heteranthera limosa), smallflower umbrella sedge (Cyperus difformis) and purple […] coccinea), were planted into one 16-cm pot for each rate. […] Seeds from the U.S. of barnyardgrass (Echinochloa crus-galli), late watergrass (Echinochloa oryzicola), early watergrass (Echinochloa oryzoides) and junglerice (Echinochloa colona) were planted into one 16-cm pot for each rate. Plantings were sequential so that crop and weed species were at the 2.0 to 2.5-leaf stage at time of treatment. Potted plants were grown in a greenhouse with day/night temperature settings of 30/27° C., and supplemental balanced lighting was provided to maintain a 16-hour photoperiod. Test pots were maintained in the greenhouse until test completion. At time of treatment, test pots were flooded to 3 cm above the soil surface, treated by application of test compounds directly to the paddy water, and then maintained at that water depth for the duration of the test. Effects of treatments on rice and weeds were visually evaluated by comparison to untreated controls after 21 days. […] A dash (-) response means no test result.

rice flatsedge = test: Test E flooded paddy test; format: in vivo, Cyperus iria; settings: Flood, after 21 days, scale 0 to 100
From the text: as §1

[1] = test system: transplanted rice seedlings; test: Test E flooded paddy test; format: in vivo, Oryza sativa cv. ‘Japonica-M202’; settings: Flood, after 21 days, scale 0 to 100
From the text: as §1

early watergrass = test: Test E flooded paddy test; format: in vivo, Echinochloa oryzoides; settings: Flood, after 21 days, scale 0 to 100
From the text: as §1

late watergrass = test: Test E flooded paddy test; format: in vivo, Echinochloa oryzicola; settings: Flood, after 21 days, scale 0 to 100
From the text: as §1

bearded sprangletop = test: Test E flooded paddy test; format: in vivo, Leptochloa fascicularis; settings: Flood, after 21 days, scale 0 to 100
From the text: as §1

sugarcane = test: Test F pre-/postemergence test; format: in vivo, Saccharum officinarum; settings: for Plant response rating, Sugarcane: preemergence, scale 0 to 100
From the text: Seeds of plant species selected from bermudagrass (Cynodon dactylon), Surinam grass (Brachiaria decumbens), large crabgrass (Digitaria sanguinalis), green foxtail (Setaria viridis), goosegrass (Eleusine indica), johnsongrass (Sorghum halepense), kochia (Kochia scoparia), pitted morningglory (Ipomoea lacunosa), purple nutsedge (Cyperus rotundus), common ragweed (Ambrosia elation), mustard (Brassica nigra), guineagrass (Panicum maximum), […] (Paspalum dilatatum), barnyardgrass (Echinochloa crus-galli), southern sandbur (Cenchrus echinatus), common sowthistle (Sonchus oleraceous), prickly […] spinosa), Italian ryegrass (Lolium multiflorum), common purslane (Portulaca oleracea), broadleaf signalgrass (Brachiaria platyphylla), common groundsel (Senecio vulgaris), common chickweed (Stellaria media), Virginia dayflower (Commelina virginica), annual bluegrass (Poa annua), naked crabgrass (Digitaria nuda), […] cochinchinensis), quackgrass (Elytrigia repens), Canada horseweed (Conyza canadensis), field bindweed (Convolvulus arvensis), […] (Bidens bipinnata), common mallow (Malva sylvestris), Russian thistle (Salsola kali), and sugarcane (Saccharum officinarum) were planted and treated preemergence with test chemicals formulated in a non-phytotoxic solvent mixture which included a surfactant. At a different time, sugarcane was treated with postemergence applications of some of the test chemicals formulated in the same manner. Plants were approximately 3- to 4-leaf stage for the postemergence treatments. Treated plants and controls were maintained in a greenhouse for 14 to 21 days, after which time all species were compared to controls and visually evaluated. […] A dash (-) response means no test result.

itchgrass = test: Test G preemergence test; format: in vivo, Rottboellia cochinchinensis; settings: scale 0 to 100
blackgrass = test: Test D preemergence test; format: in vivo, Alopecurus myosuroides; settings: scale 0 to 100
From the text: (§2) Seeds of plant species selected from annual bluegrass (Poa annua), blackgrass (Alopecurus myosuroides), downy bromegrass (Bromus tectorum), field violet (Viola arvensis), green foxtail (Setaria viridis), Italian ryegrass (Lolium multiflorum), littleseed canarygrass (Phalaris minor), spring wheat (Triticum aestivum), wild oat (Avena fatua), […]), winter barley (Hordeum vulgare), and winter wheat (Triticum aestivum) were planted and treated preemergence with test chemicals formulated in a non-phytotoxic solvent mixture which included a surfactant. […] A dash (-) response means no test result.

annual bluegrass = test: Test D preemergence test; format: in vivo, Poa annua; settings: scale 0 to 100
From the text: as §2

millet = test: Test G preemergence test; format: in vivo, Panicum miliaceum; settings: scale 0 to 100
rice = test: Test B flooded paddy test; format: in vivo, Oryza sativa; settings: Flood, 250 g ai/ha, 13 to 15 days; scale 0 to 100, 0 no effect, 100 complete control
From the text: At time of treatment, test pots were flooded to 3 cm above the soil surface, treated by application of test compounds directly to the paddy water, and then maintained at that water depth for the duration of the test. Treated plants and controls were maintained in a greenhouse for 13 to 15 days, after which time all species were compared to controls and visually evaluated. […] A dash (-) response means no test result.

Cn1nc(C(F)(F)F)c(C[S+]([O-])c2cc(Br)cc[n+]2[O-])c1Cl (racemic) [Compound 35]
Plant response rating, Barnyardgrass (barnyardgrass; 16 g ai/ha): 0
Plant response rating, Barnyardgrass (barnyardgrass; 32 g ai/ha): 0
Plant response rating, Barnyardgrass (barnyardgrass; 64 g ai/ha): 0
Plant response rating, Barnyardgrass (barnyardgrass; 125 g ai/ha): 0
Plant response rating, Barnyardgrass (barnyardgrass; 250 g ai/ha): 50
Plant response rating, Flatsedge, Rice (rice flatsedge; 16 g ai/ha): 0
Plant response rating, Flatsedge, Rice (rice flatsedge; 32 g ai/ha): 30
Plant response rating, Flatsedge, Rice (rice flatsedge; 64 g ai/ha): 70
Plant response rating, Flatsedge, Rice (rice flatsedge; 125 g ai/ha): 80
Plant response rating, Flatsedge, Rice (rice flatsedge; 250 g ai/ha): 95
Plant response rating, Rice, Transplanted ([1]; 16 g ai/ha): 0
Plant response rating, Rice, Transplanted ([1]; 32 g ai/ha): 0
Plant response rating, Rice, Transplanted ([1]; 64 g ai/ha): 0
Plant response rating, Rice, Transplanted ([1]; 125 g ai/ha): 15
Plant response rating, Rice, Transplanted ([1]; 250 g ai/ha): 15
Plant response rating, Watergrass, Early (early watergrass; 16 g ai/ha): 0
Plant response rating, Watergrass, Early (early watergrass; 32 g ai/ha): 0
Plant response rating, Watergrass, Early (early watergrass; 64 g ai/ha): 0
Plant response rating, Watergrass, Early (early watergrass; 125 g ai/ha): 20
Plant response rating, Watergrass, Early (early watergrass; 250 g ai/ha): 40
Plant response rating, Watergrass, Late (late watergrass; 16 g ai/ha): 0
Plant response rating, Watergrass, Late (late watergrass; 32 g ai/ha): 0
Plant response rating, Watergrass, Late (late watergrass; 64 g ai/ha): 0
Plant response rating, Watergrass, Late (late watergrass; 125 g ai/ha): 30
Plant response rating, Watergrass, Late (late watergrass; 250 g ai/ha): 60
Plant response rating, Sprangletop, Brdd. (bearded sprangletop; 16 g ai/ha): 0
Plant response rating, Sprangletop, Brdd. (bearded sprangletop; 32 g ai/ha): 90
Plant response rating, Sprangletop, Brdd. (bearded sprangletop; 64 g ai/ha): 90
Plant response rating, Sprangletop, Brdd. (bearded sprangletop; 125 g ai/ha): 90
Plant response rating, Sprangletop, Brdd. (bearded sprangletop; 250 g ai/ha): 90

Cn1nc(C(F)(F)F)c(C[S+]([O-])c2cccc[n+]2[O-])c1OCC(F)(F)F (racemic) [Compound 28]
Plant response rating, Sugarcane (sugarcane; 125 g ai/ha): 17
Plant response rating, Sugarcane (sugarcane; 500 g ai/ha): 68

Cc1cc[n+]([O-])c([S+]([O-])Cc2c(C(F)(F)F)nn(C)c2OCC(F)(F)F)c1 (racemic) [Compound 30]
Sugarcane plant response rating (sugarcane; 250 g ai/ha, postemergence, scale 0 to 100 (0 no effect, 100 complete control)): 33
Plant response rating, Sugarcane (sugarcane; 250 g ai/ha): 12

Cc1cc[n+]([O-])c(S(=O)(=O)C(Cl)c2c(C(F)(F)F)nn(C)c2Cl)c1 (racemic) [Compound 22]
Plant response rating, Itchgrass (itchgrass; 31 g ai/ha): 0
Plant response rating, Itchgrass (itchgrass; 62 g ai/ha): 15
Plant response rating, Itchgrass (itchgrass; 125 g ai/ha): 20
Plant response rating, Itchgrass (itchgrass; 250 g ai/ha): 40
Plant response rating, Blackgrass (blackgrass; 31 g ai/ha): 40
Plant response rating, Blackgrass (blackgrass; 62 g ai/ha): 40
Plant response rating, Blackgrass (blackgrass; 250 g ai/ha): 95
Plant response rating, Bluegrass (annual bluegrass; 31 g ai/ha): 20
Plant response rating, Bluegrass (annual bluegrass; 62 g ai/ha): 65
Plant response rating, Bluegrass (annual bluegrass; 125 g ai/ha): 95
Plant response rating, Bluegrass (annual bluegrass; 250 g ai/ha): 100
Plant response rating, Millet (millet; 31 g ai/ha): 0
Plant response rating, Millet (millet; 62 g ai/ha): 35
Plant response rating, Millet (millet; 125 g ai/ha): 60
Plant response rating, Millet (millet; 250 g ai/ha): 100

Cn1nc(C(F)(F)F)c(CS(=O)(=O)c2ccc(Cl)c[n+]2[O-])c1OC(F)F [Compound 7]
Plant response rating, Itchgrass (itchgrass; 31 g ai/ha): 0
Plant response rating, Itchgrass (itchgrass; 62 g ai/ha): 0
Plant response rating, Itchgrass (itchgrass; 125 g ai/ha): 25
Plant response rating, Itchgrass (itchgrass; 250 g ai/ha): 25
Plant response rating, Blackgrass (blackgrass; 31 g ai/ha): 0
Plant response rating, Blackgrass (blackgrass; 62 g ai/ha): 0
Plant response rating, Blackgrass (blackgrass; 125 g ai/ha): 0
Plant response rating, Blackgrass (blackgrass; 250 g ai/ha): 80
Plant response rating, Bluegrass (annual bluegrass; 31 g ai/ha): 0
Plant response rating, Bluegrass (annual bluegrass; 62 g ai/ha): 0
Plant response rating, Bluegrass (annual bluegrass; 125 g ai/ha): 65
Plant response rating, Bluegrass (annual bluegrass; 250 g ai/ha): 95
Plant response rating, Millet (millet; 31 g ai/ha): 0
Plant response rating, Millet (millet; 62 g ai/ha): 55
Plant response rating, Millet (millet; 125 g ai/ha): 85
Plant response rating, Millet (millet; 250 g ai/ha): 100
Plant response rating, Rice, Transplanted (rice): 70
